Measured values reported in PubChem BioAssay (NCI).
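Test compounds were applied to cells in 96-well plates for 48 hours at 5 doses. Abbreviation: GI50, concentration required for 50% inhibition of growth. At the TGI there is no net growth.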

Experiments:
Test in all cases: inhibition of tumour cell growth, NCI panel, 48 h
[1] = test system: NCI-H23 lung
[2] = test system: MALME-3M melanoma
[3] = test system: MDA-MB-231 breast
[4] = test system: LOX IMVI melanoma
[5] = test system: A498 renal
[6] = test system: NCI/ADR-RES ovarian
[7] = test system: RXF 393 renal
[8] = test system: HCT-116 colon
[9] = test system: PC-3 prostate
[10] = test system: NCI-H522 lung

COc1cc(/C=C/c2ccc(S(N)(=O)=O)cc2)cc(OC)c1
GI50 [1]: 22.5 µM
TGI [1]: 49.8 µM
TGI [2]: 41.6 µM
TGI [3]: 46.6 µM
GI50 [4]: 18.2 µM
TGI [4]: 34 µM
TGI [5]: 39.5 µM
TGI [6]: 89.7 µM
TGI [7]: 34.1 µM
TGI [8]: 27.5 µM
TGI [9]: 56.1 µM

COc1ccc(N2C(=O)C(=O)C3(CCCCC3)C2=O)c(OC)c1OC
TGI [1]: > 100 µM
TGI [2]: > 100 µM
TGI [10]: > 100 µM
TGI [4]: > 100 µM
TGI [6]: > 100 µM
TGI [7]: > 100 µM
TGI [8]: > 100 µM
TGI [9]: > 100 µM

O=C(NCCCc1cn[nH]c(=O)n1)c1cccc2nc3ccccc3nc12
TGI [1]: > 100 µM
TGI [2]: > 100 µM
TGI [3]: > 100 µM
TGI [4]: > 100 µM
TGI [5]: > 100 µM
TGI [6]: > 100 µM
TGI [7]: > 100 µM
TGI [8]: > 100 µM
TGI [9]: > 100 µM

COc1ccc2nc3c([N+](=O)[O-])ccc(NCCCN(C)C)c3c(N)c2c1
TGI [1]: 3.95 µM
TGI [2]: 3.1 µM
TGI [10]: 1.34 µM
TGI [3]: 3.09 µM
TGI [4]: 3.23 µM
TGI [6]: 4.25 µM
TGI [7]: 2.81 µM
TGI [8]: 0.464 µM
TGI [9]: 2.73 µM

Nc1ccn(CCCC(c2ccccc2)P(=O)(O)O)c(=O)n1 (configuration not stated)
TGI [1]: > 100 µM
TGI [2]: > 100 µM
TGI [10]: > 100 µM
TGI [4]: > 100 µM
TGI [5]: > 100 µM
TGI [8]: > 100 µM

O=c1cc(NNc2cccc(F)c2)[nH]c(=S)[nH]1
TGI [2]: > 100 µM
TGI [3]: > 100 µM
TGI [4]: > 100 µM
TGI [5]: > 100 µM
TGI [6]: > 100 µM
TGI [8]: > 100 µM
TGI [9]: > 100 µM

CCOC(=O)c1cc([N+](=O)[O-])cc([N+](=O)[O-])c1Sc1ncnc2nc[nH]c12
TGI [10]: 4.39 µM
TGI [3]: 24.9 µM
TGI [4]: 4.16 µM
TGI [5]: 25.3 µM
TGI [6]: 8.4 µM
TGI [7]: 3.29 µM
TGI [8]: 7.69 µM
TGI [9]: 9.57 µM

CC1(C)OC2OC(C(=O)c3ccccc3)C3OC(C)(C)OC3C2O1 (configuration not stated)
TGI [1]: > 100 µM
TGI [10]: > 100 µM
TGI [3]: > 100 µM
TGI [4]: > 100 µM
TGI [5]: > 100 µM
TGI [6]: > 100 µM
TGI [7]: > 100 µM
TGI [8]: > 100 µM
TGI [9]: > 100 µM

COc1ccc(N2C(=O)C3C=CC(n4[nH]c(=O)n(Cc5ccccc5)c4=O)CC3C2=O)cc1 (configuration not stated)
TGI [1]: > 100 µM
TGI [2]: > 100 µM
TGI [10]: > 100 µM
TGI [4]: > 100 µM
TGI [5]: > 100 µM
TGI [7]: > 100 µM
TGI [8]: > 100 µM

CCOC(=O)C1=C(O)c2ccc(OC)cc2C(=O)C1=O
TGI [1]: > 100 µM
TGI [2]: > 100 µM
TGI [10]: > 100 µM
TGI [4]: > 100 µM
TGI [5]: > 100 µM
TGI [7]: > 100 µM
TGI [8]: > 100 µM

CNC(=O)c1cc(Oc2cccc3nc(NC(=O)Nc4ccc(F)cc4F)ccc23)ccn1
GI50 [1]: 2.4 µM
TGI [1]: > 50 µM
GI50 [3]: 1.59 µM
TGI [3]: > 50 µM
GI50 [4]: 1.68 µM
TGI [4]: > 50 µM
GI50 [5]: 0.418 µM
TGI [5]: 23.3 µM
GI50 [6]: 1.6 µM
TGI [6]: > 50 µM
GI50 [7]: 1.24 µM
TGI [7]: 2.99 µM

COc1ccc(Oc2nc3c(N)cc(C(F)(F)F)cc3nc2-c2ccccc2)cc1
TGI [1]: > 100 µM
TGI [3]: > 100 µM
TGI [4]: 53.6 µM
TGI [5]: 55.6 µM
TGI [6]: > 100 µM
TGI [7]: 24.9 µM
TGI [8]: > 100 µM
TGI [9]: 59.6 µM

COc1cc(O)c2c(=O)c(OC)c(-c3ccc(OC)c(OC)c3)oc2c1.[Sn]
GI50 [2]: > 100 µM
TGI [2]: > 100 µM
TGI [10]: > 100 µM
GI50 [3]: > 100 µM
TGI [3]: > 100 µM
GI50 [4]: 29.8 µM
TGI [4]: > 100 µM
GI50 [6]: > 100 µM
TGI [6]: > 100 µM
TGI [7]: > 100 µM
GI50 [9]: 68.5 µM
TGI [9]: > 100 µM

COc1ccc(/C=C(\C2=NC(=O)CS2)c2nc3ccccc3[nH]2)cc1
TGI [1]: > 100 µM
TGI [2]: > 100 µM
TGI [10]: 49.7 µM
TGI [5]: > 100 µM
TGI [7]: 6.81 µM
TGI [8]: > 100 µM

COC1=CC(c2ccc[nH]2)=N/C1=C\c1[nH]c(C)c(C)c1CCC(=O)OCc1ccccc1
GI50 [1]: 0.382 µM
TGI [1]: 2.55 µM
GI50 [10]: 0.256 µM
TGI [10]: 1.62 µM
GI50 [4]: 0.217 µM
TGI [4]: 0.705 µM
GI50 [5]: 0.563 µM
TGI [5]: 1.99 µM
GI50 [6]: 0.382 µM
TGI [6]: 2.01 µM
GI50 [7]: 0.496 µM
TGI [7]: 1.83 µM
GI50 [8]: 0.065 µM
TGI [8]: 1.11 µM
GI50 [9]: 0.277 µM
TGI [9]: 5.87 µM

CC(C)(/C=N/O)/[N+]([O-])=C/c1ccccc1
TGI [1]: > 100 µM
TGI [2]: > 100 µM
TGI [3]: > 100 µM
TGI [4]: > 100 µM
TGI [6]: > 100 µM
TGI [7]: > 100 µM
TGI [8]: > 100 µM
TGI [9]: > 100 µM

CP(=O)(O)C(N)c1ccccc1 (configuration not stated)
TGI [1]: > 100 µM
TGI [2]: > 100 µM
TGI [10]: > 100 µM
TGI [4]: > 100 µM
TGI [6]: > 100 µM
TGI [8]: > 100 µM
TGI [9]: > 100 µM

c1ccc(Sc2nc(Sc3ccccc3)nc(Sc3ccccc3)n2)cc1
TGI [1]: > 100 µM
TGI [2]: > 100 µM
TGI [10]: > 100 µM
TGI [3]: > 100 µM
TGI [4]: > 100 µM
TGI [5]: 86.8 µM
TGI [7]: > 100 µM
TGI [8]: > 100 µM
TGI [9]: > 100 µM

COC(=O)C1Cc2c([nH]c3ccccc23)-c2[nH]c3ccccc3c2CC(NC(C)=O)C(=O)N2CCCC2C(=O)N1 (configuration not stated)
TGI [1]: > 100 µM
TGI [10]: > 100 µM
TGI [3]: > 100 µM
TGI [4]: > 100 µM
TGI [6]: > 100 µM
TGI [7]: > 100 µM
TGI [8]: > 100 µM
TGI [9]: > 100 µM

CCC1OC2C(CC=C(C)C)=C3OC(C)(O)C(C)(CC)C(=O)C3=C3OC(=O)C=C1C32 (configuration not stated)
TGI [1]: 70.7 µM
TGI [3]: 41.1 µM
TGI [4]: 27.3 µM
TGI [5]: > 100 µM
TGI [6]: 95.8 µM
TGI [8]: 36.9 µM
TGI [9]: > 100 µM

COc1ccc(OC)c(-c2cc(=O)c3cc4c(cc3[nH]2)OCO4)c1
TGI [1]: 15.4 µM
TGI [2]: > 100 µM
TGI [10]: 9.26 µM
TGI [4]: > 100 µM
TGI [7]: 16.5 µM
TGI [8]: > 35.7 µM

COc1c(C)c(C/C=C(\C)CCCCO)c(OC)c2ccccc12
TGI [1]: 94.2 µM
TGI [10]: 42.3 µM
TGI [3]: > 100 µM
TGI [4]: 37.6 µM
TGI [6]: > 100 µM
TGI [7]: > 100 µM
TGI [8]: 88.2 µM
TGI [9]: > 100 µM

O=P(Nc1cccc(Cl)c1)(Oc1ccccc1)N(CCCl)CCCl (configuration not stated)
TGI [1]: 31.8 µM
TGI [2]: 28.5 µM
TGI [10]: > 100 µM
TGI [5]: 27.6 µM
TGI [8]: 25.8 µM

CN(C)C1(c2cc3ccccc3s2)CCCCC1
TGI [1]: > 100 µM
TGI [10]: 41.7 µM
TGI [3]: > 100 µM
TGI [4]: 60.9 µM
TGI [5]: > 100 µM
TGI [6]: > 100 µM
TGI [7]: 84.6 µM
TGI [8]: > 100 µM
TGI [9]: > 100 µM
